This test relates to PMA-stimulated P90RSK(Ser380) phosphorylation in HepG2 cells. Briefly: Cellular P90RSK(Ser380) Phosphorylation Assay (Biological Example 2). Type of test: cell-based. The note with it: read-out: Biological Example 2 IC50, 1.5 hours compound incubation, PMA 100 ng/mL 30 minutes, normalized to GAPDH, single assay or mean of multiple assays. The procedure: Inhibition of PMA-stimulated P90RSK(Ser380) phosphorylation was determined by the following in vitro cellular mechanistic assay, which comprises incubating cells with a compound for 1.5 hours and quantifying fluorescent pP90RSK(Ser380) signal on fixed cells and normalizing to GAPDH signal.
HepG2 cells were obtained from ATCC and grown in DMEM supplemented with 10% fetal bovine serum. Cells were plated in 96-well plates at 35,000 cells/well and allowed to attach overnight at 37° C./5% CO2. Diluted compounds were then added at a final concentration of 0.5% DMSO. After 1.5 hours compound incubation, cells were stimulated with the addition of phorbol 12-myristate 13-acetate (“PMA”) at a final concentration of 100 ng/mL; the PMA stimulation was a 30-minute incubation at 37° C./5% CO2. After the 30-minute PMA stimulation, cells were washed with phosphate buffered saline (“PBS”) and fixed in 3.7% formaldehyde in PBS at room temperature for 15-20 minutes. This was followed by another wash in PBS and then permeabilization in 100% MeOH at room temperature for 10-15 minutes. Following the permeabilization incubation, cells were washed in PBS/0.05% Tween-20, followed by a block in Odyssey blocking buffer (LI-COR Biosciences) for at least 1 hour. […] Cells were then washed and analyzed for fluorescence at both wavelengths using the Odyssey Infrared Imaging System (LI-COR Biosciences). […]

Each structure is given as a SMILES string.

Consider `Cc1cc(Nc2nccc(-c3ccn([C@H](CO)c4ccc(Cl)c(F)c4)c(=O)c3)n2)n(C)n1` [Example 167, (S)-1-(1-(4-chloro-3-fluorophenyl)-2-hydroxyethyl)-4-(2-((1,3-dimethyl-1H-pyrazol-5-yl)amino)pyrimidin-4-yl)pyridin-2(1H)-one], for which the IC50 was found to be 100 nM.
